Data from ChEMBL document CHEMBL3865781, “Recent advances in the discovery and development of antibacterial agents targeting the cell-division protein FtsZ” (Bioorg Med Chem, 2016).
≈ marks a conversion by molar mass, not a printed value.

How the values were obtained:
Staphylococcus aureus [1] = assay: Antibacterial activity against methicillin-resistant Staphylococcus aureus ATCC BAA-41 after 18 hrs by broth microdilution method; type: functional; settings: ATCC BAA-41, 18 h
Klebsiella pneumoniae = assay: Antibacterial activity against Klebsiella pneumoniae ATCC BAA-1144 after 18 hrs by broth microdilution method; type: functional; settings: ATCC BAA-1144, 18 h
Staphylococcus aureus [2] = assay: Antibacterial activity against methicillin-sensitive Staphylococcus aureus after 18 hrs by broth microdilution method; type: functional
Escherichia coli [3] = assay: Antibacterial activity against Escherichia coli ATCC 25922 after 18 hrs by broth microdilution method; type: functional; settings: ATCC 25922, 18 h
[4] = Inhibition of Escherichia coli FtsZ GTPase activity expressed in Escherichia coli BL21 preincubated for 5 mins followed by GTP addition after 15 mins by malachite green based spectrophotometric analysis
Enterococcus faecalis [5] = assay: Antimicrobial activity against vancomycin-sensitive Enterococcus faecalis after 18 hrs by broth microdilution method; type: functional
[6] = Inhibition of Escherichia coli FtsZ polymerization expressed in Escherichia coli BL21 assessed as reduction in light scattering intensity in presence of GTP by fluorescence spectrometric analysis
Staphylococcus aureus [7] = assay: Antibacterial against methicillin-resistant Staphylococcus aureus; type: functional
Salmonella typhimurium = assay: Antibacterial activity against Salmonella typhimurium; type: functional, Salmonella enterica subsp. enterica serovar Typhimurium; settings: Salmonella enterica
Escherichia coli [8] = assay: Antibacterial activity against Escherichia coli; type: functional
Priestia megaterium = assay: Antibacterial against Bacillus megaterium; type: functional
[9] = tested on: Mycobacterium tuberculosis; assay: Antimycobacterial activity against Mycobacterium tuberculosis H37Rv after 2 weeks; type: functional; settings: 336 h
[10] = tested on: Mycobacterium tuberculosis; assay: Antibacterial activity against Mycobacterium tuberculosis NHN382 clinical isolates measured every 24 hrs for 7 days by MABA assay; type: functional
[11] = tested on: Mycobacterium tuberculosis; assay: Antibacterial activity against Mycobacterium tuberculosis TN587 clinical isolates measured every 24 hrs for 7 days by MABA assay; type: functional
[12] = tested on: Mycobacterium tuberculosis; assay: In vivo antibacterial activity against Mycobacterium tuberculosis str. Erdman infected in C57BL/6 mouse assessed as reduction in bacterial load in lungs at 50 mg/kg, ip bid on day 5 to 14 post infection measured on day 15 post infection; type: functional, Erdman = ATCC 35801
[13] = tested on: Mycobacterium tuberculosis; assay: Antibacterial activity against Mycobacterium tuberculosis H37Rv measured every 24 hrs for 7 days by MABA assay; type: functional
[14] = tested on: Mycobacterium tuberculosis; assay: In vivo antibacterial activity against Mycobacterium tuberculosis H37Rv infected in GKO-TB mouse assessed as reduction in bacterial load in spleen at 50 mg/kg, ip or po bid for 10 consecutive days; type: functional
[15] = tested on: Mycobacterium tuberculosis; assay: Antibacterial activity against Mycobacterium tuberculosis W210 clinical isolates measured every 24 hrs for 7 days by MABA assay; type: functional
[16] = tested on: Mycobacterium tuberculosis; assay: Antibacterial activity against Mycobacterium tuberculosis NHN20 clinical isolates measured every 24 hrs for 7 days by MABA assay; type: functional
Bacillus subtilis [17] = assay: Antibacterial activity against Bacillus subtilis 168 harboring trpC2 after 4 hrs; type: functional; settings: subsp. subtilis str. 168, 4 h
Escherichia coli [18] = assay: Antibacterial activity against Escherichia coli K12 MG1655 after 4 hrs; type: functional; settings: K-12 substr. MG1655, 4 h
[19] = tested on: Mycobacterium tuberculosis; assay: In vivo antibacterial activity against Mycobacterium tuberculosis str. Erdman infected in C57BL/6 mouse assessed as reduction in bacterial load in spleens at 50 mg/kg, ip bid on day 5 to 14 post infection measured on day 15 post infection; type: functional, Erdman = ATCC 35801
Bacillus subtilis [20] = assay: Antibacterial activity against Bacillus subtilis after 4 hrs; type: functional
[21] = tested on: Mycolicibacterium smegmatis; assay: Antibacterial activity against Mycobacterium smegmatis after 4 hrs; type: functional
[22] = target: T1, Cell division protein FtsZ (Staphylococcus aureus, UniProt P0A031); assay: Inhibition of Staphylococcus aureus N-terminal His6-tagged FtsZ GTPase activity expressed in Escherichia coli BL21(DE3) preincubated for 10 mins followed by GTP addition after 30 mins by cytophos phosphate assay
T1 sequence (P0A031 whole entry): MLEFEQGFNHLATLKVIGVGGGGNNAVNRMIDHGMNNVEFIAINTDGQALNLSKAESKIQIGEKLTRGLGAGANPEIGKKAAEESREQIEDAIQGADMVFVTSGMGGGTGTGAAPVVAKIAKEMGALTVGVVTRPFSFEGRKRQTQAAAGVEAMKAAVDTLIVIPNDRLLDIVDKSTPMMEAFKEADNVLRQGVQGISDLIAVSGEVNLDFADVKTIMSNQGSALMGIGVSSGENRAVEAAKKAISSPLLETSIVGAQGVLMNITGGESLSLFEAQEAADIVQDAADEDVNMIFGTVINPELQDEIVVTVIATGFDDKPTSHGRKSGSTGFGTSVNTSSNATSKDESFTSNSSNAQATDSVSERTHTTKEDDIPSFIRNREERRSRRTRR

Escherichia coli [23] = assay: Antibacterial activity against Escherichia coli by broth dilution method; type: functional
Staphylococcus aureus [24] = assay: Antibacterial activity against methicillin-resistant Staphylococcus aureus by broth dilution method; type: functional
Bacillus subtilis [25] = assay: Antibacterial activity against Bacillus subtilis by broth dilution method; type: functional
Enterococcus faecalis [26] = assay: Antimicrobial activity against vancomycin-resistant Enterococcus faecalis after 18 hrs by broth microdilution method; type: functional
Bacillus subtilis [27] = assay: Antibacterial activity against Bacillus subtilis 168 after 12 hrs by agar dilution assay; type: functional; settings: subsp. subtilis str. 168, 12 h
[28] = tested on: Mycolicibacterium smegmatis; assay: Antibacterial activity against Mycobacterium smegmatis after 12 hrs by agar dilution assay; type: functional

## O=c1ccc2ccc(O)c(O)c2o1 [DAPHNETIN]
Staphylococcus aureus [1]
  MIC: 2 to 8 µg/mL (≈ 11.2 to 44.9 µM)
Klebsiella pneumoniae
  MIC: 32 to 128 µg/mL (≈ 180 to 719 µM)
Staphylococcus aureus [2]
  MIC: 2 to 8 µg/mL (≈ 11.2 to 44.9 µM)
Escherichia coli [3]
  MIC: 32 to 128 µg/mL (≈ 180 to 719 µM)
[4]
  IC50: 57 µM
Enterococcus faecalis [5]
  MIC: 4 to 16 µg/mL (≈ 22.5 to 89.8 µM)
[6]
  IC50: 73 µM

## H-GLLRKGGEKIGEKLKKIGQKIKNFFQKLVPQPEQ-OH
Staphylococcus aureus [7]
  MIC: 0.5 to 64 µM
Salmonella typhimurium
  MIC: 0.5 to 64 µM
Escherichia coli [8]
  MIC: 0.5 to 64 µM
Priestia megaterium
  MIC: 0.5 to 64 µM

## O=c1ccc2cc(CCO)c(O)cc2o1
[9]
  MIC: 60 µg/mL (≈ 291 µM)

## CN(C)c1cc2[nH]c(C3CCCCC3)nc2cc1NC(=O)c1ccc(OC(F)(F)F)cc1F
[10]
  MIC99: 0.31 µg/mL (≈ 0.667 µM)
[11]
  MIC99: 0.31 µg/mL (≈ 0.667 µM)
[12]
  Activity: 5.7 - 6.3 log10CFU
[13]
  MIC99: 0.31 µg/mL (≈ 0.667 µM)
[14]
  Activity: 3.9 - 5 log10CFU
[15]
  MIC99: 0.47 µg/mL (≈ 1.01 µM)
[16]
  MIC99: 0.24 µg/mL (≈ 0.517 µM)

## COc1cc(/C=C/C(=O)CC(=O)/C=C/c2ccc(O)c(OC)c2)ccc1O [CURCUMIN]
Bacillus subtilis [17]
  IC50: 17 µM
Staphylococcus aureus [1]
  MIC: 2 to 8 µg/mL (≈ 5.43 to 21.7 µM)
Klebsiella pneumoniae
  MIC: 32 to 128 µg/mL (≈ 86.9 to 347 µM)
Escherichia coli [18]
  IC50: 58 µM
Staphylococcus aureus [2]
  MIC: 2 to 8 µg/mL (≈ 5.43 to 21.7 µM)
Escherichia coli [3]
  MIC: 32 to 128 µg/mL (≈ 86.9 to 347 µM)
Enterococcus faecalis [5]
  MIC: 4 to 16 µg/mL (≈ 10.9 to 43.4 µM)

## CN(C)c1cc2[nH]c(C3CCCCC3)nc2cc1NC(=O)c1ccc(C(F)(F)F)cc1F
[10]
  MIC99: 0.16 µg/mL (≈ 0.357 µM)
[11]
  MIC99: 0.24 µg/mL (≈ 0.535 µM)
[12]
  Activity: 5.7 - 6.3 log10CFU
[13]
  MIC99: 0.18 µg/mL (≈ 0.401 µM)
[14]
  Activity: 3.9 - 5 log10CFU
[15]
  MIC99: 0.31 µg/mL (≈ 0.691 µM)
[16]
  MIC99: 0.16 µg/mL (≈ 0.357 µM)

## CN(C)c1cc2[nH]c(C3CCCCC3)nc2cc1NC(=O)c1ccc(OC(F)(F)F)cc1
[10]
  MIC99: 0.16 µg/mL (≈ 0.358 µM)
[11]
  MIC99: 0.16 µg/mL (≈ 0.358 µM)
[13]
  MIC99: 0.16 µg/mL (≈ 0.358 µM)
[19]
  Activity: 2.68 log10CFU
[15]
  MIC99: 0.16 µg/mL (≈ 0.358 µM)

## CCC(C)c1ccc(NC(=O)c2cccc3[nH]c(-c4cccs4)nc23)cc1 (configuration not stated)
Bacillus subtilis [20]
  IC50: 1 µM
[21]
  IC50: 1.6 µM

## COc1ccc2cc3[n+](cc2c1OCCCOc1ccc(Cl)cc1)CCc1cc2c(cc1-3)OCO2.[Br-]
Staphylococcus aureus [1]
  MIC: 2 to 8 µg/mL
Klebsiella pneumoniae
  MIC: 32 to 128 µg/mL
Staphylococcus aureus [2]
  MIC: 2 to 8 µg/mL
Escherichia coli [3]
  MIC: 32 to 128 µg/mL
Enterococcus faecalis [5]
  MIC: 4 to 16 µg/mL
[22]
  IC50: 66.6 µM

## O=C/C=C/c1ccccc1 [CINNAMALDEHYDE]
Escherichia coli [23]
  MIC: 0.1 µg/mL (≈ 0.757 µM)
Staphylococcus aureus [24]
  MIC: 0.25 µg/mL (≈ 1.89 µM)
Staphylococcus aureus [1]
  MIC: 2 to 8 µg/mL (≈ 15.1 to 60.5 µM)
Klebsiella pneumoniae
  MIC: 32 to 128 µg/mL (≈ 242 to 969 µM)
Staphylococcus aureus [2]
  MIC: 2 to 8 µg/mL (≈ 15.1 to 60.5 µM)
Bacillus subtilis [25]
  MIC: 0.5 µg/mL (≈ 3.78 µM)
Escherichia coli [3]
  MIC: 32 to 128 µg/mL (≈ 242 to 969 µM)
Enterococcus faecalis [5]
  MIC: 4 to 16 µg/mL (≈ 30.3 to 121 µM)
Enterococcus faecalis [26]
  MIC: 4 to 16 µg/mL (≈ 30.3 to 121 µM)

## CC(=O)O[C@@]12CO[C@@H]1C[C@H](O)[C@@]1(C)C(=O)C(=O)C3=C(C)[C@@H](OC(=O)/C=C/c4ccc5ccccc5c4)C[C@@](O)([C@@H](OC(=O)c4ccccc4)[C@H]21)C3(C)C
Bacillus subtilis [27]
  MIC: 30 µM (≈ 21.7 µg/mL)
[28]
  MIC: 60 µM (≈ 43.4 µg/mL)
